The subject of assay [1] is CCK receptor. The note with it: in words; cited from earlier work.
Assay [2] concerns the target T1, CCK receptor (pancreas) (Rattus norvegicus, UniProt P30551).
T1 construct: The whole pancreas was dissected free of fat tissue and was homogenized; from tissue; host or cells: rat pancreas membranes (male Sprague-Dawley)
T1 sequence (P30551 1-444): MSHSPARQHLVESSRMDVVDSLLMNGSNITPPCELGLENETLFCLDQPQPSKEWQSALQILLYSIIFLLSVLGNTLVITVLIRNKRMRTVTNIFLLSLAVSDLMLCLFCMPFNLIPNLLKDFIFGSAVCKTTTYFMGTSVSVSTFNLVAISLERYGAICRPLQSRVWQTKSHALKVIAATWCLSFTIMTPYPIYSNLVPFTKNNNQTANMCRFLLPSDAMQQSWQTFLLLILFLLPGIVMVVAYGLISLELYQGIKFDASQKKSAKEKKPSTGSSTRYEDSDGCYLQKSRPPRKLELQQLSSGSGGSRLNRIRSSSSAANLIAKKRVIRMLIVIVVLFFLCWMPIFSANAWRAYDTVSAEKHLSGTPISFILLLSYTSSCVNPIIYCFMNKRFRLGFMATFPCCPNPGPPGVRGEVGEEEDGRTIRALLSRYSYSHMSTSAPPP
Nature of the assay: CCK Receptor Binding (Pancreas), inhibition of 125I-CCK-8 binding. Details: species or system Male Sprague-Dawley rats. The note with it: 125I-CCK-8 50 pM, 25° C., 2 hours. On the procedure:
CCK-8 sulphated was radiolabelled with ^125 I-Bolton Hunter reagent (2000 Ci/mmole). Receptor binding was performed according to Chang and Lotti (Proc. Natl. Acad. Sci. 83, 4923-4926, 1986) with minor modifications.
Male Sprague-Dawley rats (150-200 g) were sacrificed by decapitation. The whole pancreas was dissected free of fat tissue and was homogenized in 25 volumes of ice-cold 10 mM Hepes buffer with 0.1% soya bean trypsin inhibitor (pH 7.4 at 25° C.) with a Kinematica Polytron. The homogenates were centrifuged at 47,800 g for 10 min. Pellets were resuspended in 10 volumes of binding assay buffer (20 mM Hepes, 1 mM EGTA, 5 mM MgCl2, 150 mM NaCl, bacitracin 0.25 mg/ml, soya bean trypsin inhibitor 0.1 mg/ml, and bovine serum albumin 2 mg/ml, pH 6.5 at 25° C.) using a teflon homogenizer, 15 strokes at 500 rpm. The homogenate was further diluted in binding assay buffer to give a final concentration of 0.5 mg original wet weight/1 ml buffer. […] All assays were run in duplicate. […] The radioactivity on the filters was counted with a LKB gamma counter.
(§1) Drug displacement studies were performed with at least 10 concentrations of compounds of formula 1 and the IC50 values were determined by regression analysis.

Assay [3] addresses T2, CCK receptor (brain) (Cavia porcellus, UniProt H0VZC5).
T2 construct: the cortex was removed and homogenized in 25 mL ice-cold 0.32M sucrose; from tissue; host or cells: guinea pig brain cortex P2 membranes (male Hartley)
T2 sequence (H0VZC5 1-426): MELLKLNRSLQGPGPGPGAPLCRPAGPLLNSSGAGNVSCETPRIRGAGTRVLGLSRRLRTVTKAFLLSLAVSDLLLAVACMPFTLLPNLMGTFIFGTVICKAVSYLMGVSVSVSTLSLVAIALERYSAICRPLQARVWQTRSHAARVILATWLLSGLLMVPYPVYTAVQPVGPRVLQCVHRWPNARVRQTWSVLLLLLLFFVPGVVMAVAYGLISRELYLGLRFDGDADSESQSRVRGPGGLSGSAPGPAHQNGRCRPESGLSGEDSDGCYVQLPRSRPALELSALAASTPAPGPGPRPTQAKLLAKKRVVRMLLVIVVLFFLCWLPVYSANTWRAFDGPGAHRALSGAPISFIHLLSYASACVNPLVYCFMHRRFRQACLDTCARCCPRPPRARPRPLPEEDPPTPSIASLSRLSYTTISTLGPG
Nature of the assay: CCK Receptor Binding (Brain), inhibition of 125I-CCK-8 binding. Also on record: species or system Male Hartley guinea pigs. As to the method: CCK-8 sulphated was radiolabelled and the binding was performed according to the description for the pancreas method with minor modifications.
Male Hartley guinea pigs (300-500 g) were sacrificed by decapitation and the cortex was removed and homogenized in 25 mL ice-cold 0.32M sucrose. The homogenates were centrifuged at 1000 g for 10 minutes and the resulting supernatant was recentrifuged at 20,000 g for 20 minutes. […] All assays were run in duplicate. The reaction mixtures were incubated at 25° C. for 2 hours and then the reaction was terminated on Whatman GF/C filters by rapid filtration (Brandell 24 well cell Harvester) with 3×5 ml washes of cold 100 mM NaCl. The radioactivity on the filters was then counted with a LKB gamma counter.
as §1

The target of assay [4] is T3, Gastrin receptor (gastric glands) (Cavia porcellus, UniProt H0VZC5).
T3 construct: from tissue; host or cells: guinea pig gastric mucosal glands (male Hartley)
T3 sequence (H0VZC5 1-426): T2 sequence (H0VZC5 1-426)
The experiment in a line: Gastrin Receptor Binding in Guinea Pig Gastric Glands, 125I-gastrin. Details: species or system guinea pigs, male Hartley. The conditions noted are these: 125I-gastrin 0.1 nM, 25° C., 30 minutes, read-out: CCK RECEPTOR BINDING RESULTS IC50, 125I-Gastrin Gastric Glands. As to the method: Gastrin antagonist activity of compounds of Formula I is determined using the following assay.
A. Gastrin Receptor Binding in Guinea Pig Gastric Glands
Guinea pig gastric mucosal glands were prepared by the procedure of Chang et al., Science 230, 177-179 (1985) with slight modification. Gastric mucosa from guinea pigs (300-500 g body weight, male Hartley) were isolated by scraping with a glass slide after washing stomachs in ice-cold, aerated buffer consisting of the following: 130 mM NaCl, 12 mM NaHCO3, 3 mM NaH2 PO4, 3 mM Na2 HPO4, 3 mM K2 HPO4, 2 mM MgSO4, 1 mM CaCl2, 5 mM glucose and 4 mM L-glutamine, 50 mM HEPES, 0.25 mg/ml bacitracin, 0.10 mg/ml soya bean trypsin inhibitor, 0.1 mg/ml bovine serum albumin, at pH 6.5, and then incubated in a 37° C. shaking water bath for 40 minutes in buffer containing 1 mg/ml collagenase and bubbled with 95% O2 and 5% CO2. The tissues were passed twice through a 5 ml syringe to liberate the gastric glands, and then filtered through Nitex #202 gauge nylon mesh. The filtered glands were centrifuged at 272 g for 5 minutes and washed twice by resuspension in 25 ml buffer and centrifugation.
The washed guinea pig gastric glands prepared as above were resuspended in 25 ml of standard buffer. […] The radioactivity on the filters was measured using a LKB gamma counter.

Assay [5] has as its system gastrin. The conditions noted are these: in words, in vitro; cited from earlier work.
In assay [6] the test system is brain CCK (CCK-B). The note with it: in words; cited from earlier work.
Where [7] appears, read: guinea pig cortex, 125I-CCK-8 50 pM, 25° C., 2 hours, read-out: CCK RECEPTOR BINDING RESULTS IC50, 125I-CCK Brain.

“Also recorded” adds a separate entry of the source. Where two headings read alike, the source gives them in different places. Square brackets hold non-standard residues; d marks the D form. Peptide text beside a SMILES is read from it. * marks the point of attachment. sY = N[C@@H](Cc1ccc(OS(=O)(=O)O)cc1)C(=O)O; Cbz = O=C(OCc1ccccc1)*; Boc = CC(C)(C)OC(=O)*

Take `CSCC[C@H](N)C(=O)N[C@@H](CC(=O)O)C(=O)N[C@@H](Cc1ccccc1)C(N)=O` [Met-Asp-Phe-NH2] (H-Met-Asp-Phe-NH2): the CCK antagonist activity result in assay [1] is “can function as CCK antagonists”.
As to `CCCC(=O)Nc1nc2c(ncn2[C@@H]2O[C@@H]3COP(=O)(O)O[C@H]3[C@H]2OC(=O)CCC)c(=O)[nH]1` [dibutyryl cyclic GMP], in assay [1], the CCK antagonist activity entry is listed as “most potent”.
For orientation: IC50 means the midpoint of a concentration-inhibition curve. Consider `Cc1cccc(NC(=O)NC2N=C(c3ccccc3)c3ccccc3N(Cc3c[nH]cn3)C2=O)c1` (stereo not shown) [Example 1, N-{1,3-Dihydro-1-[1H-4-imidazolyl]methyl-2-oxo-5-phenyl-1H-1,4-benzodiazepin-3-yl}-N'-{[3-methylphenyl]-urea}], for which the IC50 in assay [2] was 11 nM; in assay [3] (setting [7]), 7.9 nM; in assay [4] it was 3.6 nM.
In the case of `Cc1cccc(NC(=O)NC2N=C(c3ccccc3)c3ccccc3N(Cc3n[nH]c(C)n3)C2=O)c1` (racemic) [Example 4, N-{1,3-Dihydro-1-[5-(2-methyl-1,3,4-triazolo)-methylene]-2-oxo-5-phenyl-1H-1,4-benzodiazepin-3-yl}-N'-{[3-methylphenyl]-urea}], the IC50 in assay [3] (setting [7]) is 10 nM.
With `CCCN(CCC)C(=O)C(CCC(=O)O)NC(=O)c1ccccc1` (stereo not shown) [proglumide], in assay [5], the gastrin antagonist activity result is recorded as “very weak in vitro antagonists”.
Take `Cc1cccc(NC(=O)N[C@@H]2N=C(c3ccccc3)c3ccccc3N(C)C2=O)c1` [(R)-N-(2,3-dihydro-1-methyl-2-oxo-5-phenyl-1H-1,4-benzodiazepin-3-yl)-N^1-(3-methylphenyl) urea]: the “CCK-B receptor antagonism / selectivity” value in assay [6] is “potent and selective antagonist of CCK-B receptors”.
For the compound `CSCC[C@H](NC(=O)[C@H](Cc1ccc(OS(=O)(=O)O)cc1)NC(=O)OCc1ccccc1)C(=O)NCC(=O)N[C@@H](Cc1c[nH]c2ccccc12)C(=O)N[C@@H](CCSC)C(=O)N[C@@H](CC(=O)O)C(N)=O` [Cbz-Tyr(SO3 H)-Met-Gly-Trp-Met-Asp-NH2] (Cbz-[sY]MGWMD-NH2), the CCK antagonist activity result in assay [1] is “can function as CCK antagonists; also recorded: partial agonist”.
Consider `O=C(Nc1cccc(-c2nn[nH]n2)c1)N[C@@H]1N=C(c2ccccc2)c2ccccc2N(CC(=O)N2CCCC2)C1=O` [Example 2, N-{3-(R)-1,3-Dihydro-1-(pyrrolidinylcarbonyl)methyl-2-oxo-5-phenyl-1H-1,4-benzodiazepin-3(R)-yl}-N'-{[3-(1H-tetrazol-5-yl)phenyl]urea}], for which the IC50 in assay [3] (setting [7]) worked out at 0.12 nM.
As to `Cc1cccc(NC(=O)NC2N=C(c3ccccc3)c3ccccc3N(Cc3ncc[nH]3)C2=O)c1` (stereo not shown) [Example 3, N-{1,3-Dihydro-1-[1H-2-imidazolyl]methyl-2-oxo-5-phenyl-1H-1,4-benzodiazepin-3-yl}-N'-{[3-methylphenyl]-urea}], the IC50 amounted to 258 nM in assay [2] and 58.9 nM in assay [3].
Consider `CSCC[C@H](NC(=O)OC(C)(C)C)C(=O)N[C@@H](CC(=O)O)C(=O)N[C@@H](Cc1ccccc1)C(N)=O` [Boc-Met-Asp-Phe-NH2] (Boc-Met-Asp-Phe-NH2), for which the CCK antagonist activity entry in assay [1] is “can function as CCK antagonists”.
